Experimental data as given in patent US20150141375A1 (priority 2009, published 2015).
Entries after “also recorded” stand apart in the source; their conditions may differ.

How the values were obtained:
PK comparison, rabbit = settings: in vivo, 2 mg/kg, calculated from doses of 5 and 10 mg/kg, analyte = label, after CMX001
Source text: (§1) Table 4 illustrates the PK comparison of CMX001 with CMX021 and CMX064 for mouse, rabbit and human.

Vaccinia Virus = assay: microbe, parasite or virus in culture; assay type: cell-based; settings: Orthopoxvirus vaccinia, HFF
BKV(Dunlop) = settings: RPTECs, same test system (Bernhoff et al., 2008), cited from earlier work
Adenovirus = assay: In vitro activity against Adenovirus (HFF; AdV 5); assay type: cell-based; settings: unidentified adenovirus
[1] = Safety and pharmacokinetics of CMX001 in healthy volunteers; assay type: in vivo, human; settings: blood, Human, analyte = label
Experimental: An initial study was conducted to evaluate the safety and pharmacokinetics of CMX001 in healthy volunteers. The study consisted of a single dose arm (SD) and a multiple dose arm (MD). In the single dose arm 7 cohorts of 6 subjects were treated (4 subjects received active drug and 2 placebo). Enrollment was staggered as 2 subjects (one active, one placebo) followed by 4 subjects (Groups A and B). The estimated single doses for the two highest doses treated for a […] subject were 40 mg (0.6 mg/kg cohort 6) and 70 mg (1 mg/kg cohort 7). In the multiple dose arm, cohort 6MD received 0.1 mg/kg on Day 0, 6 and 12; Cohort 7MD received 0.2 mg/kg on Day 0, 6 and 12. Levels of cidofovir, CMX001 and CMX064 (major metabolite) were measured in blood and urine of subjects during the course of the study. Gastrointestinal (GI) monitoring of the subjects included (a) monitoring for clinical signs of GI adverse events, (b) monitoring for clinical symptoms using a visual Analog Scale, (c) monitoring for appetite loss/anorexia, nausea, vomiting, diarrhea, constipation and intestinal gas/bloating, (d) laboratory tests for fecal occult blood; serum electrolytes, urine specific gravity, BUN/creatinine ratio; serum albumin, and lipids, and (e) diagnostic studies (the Wireless capsule endoscopy (PillCam®, Given Imaging)).

Mad-4 JCV = assay: JCV (Mad-4) initial infection of SVG cells (in situ DNA hybridization, qPCR)
HSV-2 = assay: In vitro efficacy against HSV-2 strains in HFF (CPE, plaque reduction); assay type: cell-based
Source text: In vitro screening by CPE assay in human foreskin fibroblast (HFF) cells with confirmation using plaque reduction assays in HFF.

[2] = Vistide 5 mg/kg with probenecid; cited from earlier work
Variola major = assay: organism not typed; assay type: cell-based; settings: Vero 76
HCMV(AD169) = assay: In vitro potency against dsDNA viruses: HCMV; assay type: cell-based; settings: Human betaherpesvirus 5, AD169, MRC5; MRC-5
HSV-1 [3] = assay: microbe, parasite or virus in culture; assay type: cell-based
BK Virus = assay: In vitro potency against BK Virus in WI-38 cells; assay type: cell-based; settings: Betapolyomavirus hominis, WI-38
EBV = assay: In vitro potency against dsDNA viruses: EBV; assay type: cell-based; settings: human gammaherpesvirus 4; Dardi
PK comparison, mouse = assay type: in vivo; settings: 2 mg/kg, calculated from doses of 2 and 10 mg/kg, analyte = label, after CMX001
Source text: as §1

HCMV (AD169) = assay: HCMV real time array of viral transcripts; assay type: cell-based; settings: CDV 50 μM, GCV 15 μM, CMX001 0.5 μM; ANOVA P<0.05
HHV-6 = assay: In vitro potency against dsDNA viruses: HHV-6; assay type: cell-based; settings: HSB2; HSB-2
HPV 18 = assay: In vitro potency against dsDNA viruses: HPV 18; assay type: cell-based; settings: HeLa
JC = assay: In vitro potency against dsDNA viruses: JC; assay type: cell-based, JC virus; settings: JC polyomavirus
HSV-1 [4] = assay: In vitro potency against dsDNA viruses: HSV-1; assay type: cell-based; settings: Human alphaherpesvirus 1, MRC5; MRC-5
CMV = settings: person with renal failure, all observed time points after CMX001
HPV 11 = assay: In vitro potency against dsDNA viruses: HPV 11; assay type: cell-based; settings: A-431; A431
SVG cells = assay: SVG cell viability / cell number (MTS, alamar blue, hematoxylin); assay type: cell-based, human
Experimental: Quantification of cell viability using the MTS [3-(4,5-dimethylthiazol-2-yl)-5-(3-carboxymethoxyphenyl)-2-(4-sulfophenyl)-2H-tetrazolium] assay is based on bioactivity of mitochondrial dehydrogenase in living cells, which converts colorless tetrazolium salt to a colored formazan. MTS assays were performed according to manufacturer's instructions (Promega, Madison Wis.). Briefly, culture medium was removed from cells and 50 μL of PBS was added into each well of a 96 well plate. Ten μL of MTS reagent were added to wells of cells, and to a well without cells to determine background. Mixtures were incubated at 37° C. for 2 hours and the absorbance was measured at 490 nm. Trypan blue staining was performed on identical cultures to correlate MTS values with cell viability. The final values indicated are the result from 3 replicates. The value for the non-treated control was set to 100% and all other values are represented as a percentage of the control. Alamar blue (AB) assay.
Quantification of cell viability using the alamar blue (AB) assay was performed according to the manufacturer's instructions (Invitrogen, Gaithersburg, Md.). Briefly, 10 μL of AB reagent was added to each well of a 96 well dish containing cells or without cells to determine background. Mixtures were incubated at 37° C. for 6 hours and the absorbance measured at 570 nm using 600 nm as a reference wavelength. The value for the non-treated control was set to 100% and all other values are represented as a percentage of the control.
Because cell density in cultures processed for in situ DNA hybridization could not be measured by MTS or AB assays, cell density was approximated in cell cultures processed by quantifying hematoxylin staining intensity. Coverslips containing cells were prepared for in situ DNA hybridization and co-stained with hematoxylin. Subsequently, each coverslip was scanned and the hematoxylin intensities quantified using ImageJ. To determine the total cell number per coverslip, images were acquired at 10 random positions at 100× magnification. Cells were counted throughout each image and the average cell number per slide was generated by averaging counts from the 10 images for each experimental group. Exactly 900 images at 100× magnification cover the surface of an 18 mm×18 mm coverslip.

## Nc1ccn(C[C@@H](CO)OCP(=O)(O)O)c(=O)n1 [Cidofovir, cidofovir, reference compound]
PK comparison, rabbit
  AUC: 50.1 ng·h/mL
  Cmax: 5.44 ng/mL
Vaccinia Virus
  EC50: 46 µM
BKV(Dunlop)
  IC-90 of CDV, BKV replication: 40 µg/mL
BKV(Dunlop); read-out: IC-90 of CDV, BKV replication
  IC90: 127 µM
Adenovirus
  IC50: 1.3 µM
Adenovirus; HFF
  EC50: 1.3 µM
[1]; 0.05 mg/kg, CMX001 0.050 mg/kg
  AUC: 33.3 ng·h/mL
  Cmax: 1.51 ng/mL
[1]; 0.1 mg/kg, CMX001 0.100 mg/kg
  AUC: 125 ng·h/mL
  Cmax: 3.44 ng/mL
[1]; 0.2 mg/kg, CMX001 0.200 mg/kg
  AUC: 190 ng·h/mL
  Cmax: 5.41 ng/mL
[1]; 0.4 mg/kg, CMX001 0.400 mg/kg
  AUC: 445 ng·h/mL
  Cmax: 10.4 ng/mL
[1]; 0.6 mg/kg, CMX001 0.600 mg/kg
  AUC: 519 ng·h/mL
  Cmax: 12.2 ng/mL
Mad-4 JCV; CDV 0.01 to 0.1 μM, listed as CDV
  reduction in JCV DNA containing cells: did not elicit any significant reduction; also recorded: did not show any effect on JCV replication
Mad-4 JCV; CDV, any concentration tested
  copy number of JCV genomes (qPCR): had no affect
HSV-2; Human alphaherpesvirus 2, strain G
  EC50: 5.5 ± 2.1 µM
HSV-2; Human alphaherpesvirus 2, strain MS
  EC50: 5.1 ± 5.4 µM
HSV-2; Human alphaherpesvirus 2, strain SR
  EC50: 5.9 ± 5.9 µM
[2]
  peak plasma concentrations of cidofovir: 19,600 ng/mL
Variola major
  EC50: 27.3 µM
HCMV(AD169)
  EC50: 0.38 µM
HSV-1 [3]; Human alphaherpesvirus 1, strain E-377
  EC50: 5.5 ± 6 µM
HSV-1 [3]; Human alphaherpesvirus 1, strain F
  EC50: 1.5 ± 0.4 µM
HSV-1 [3]; Human alphaherpesvirus 1, strain HL-3
  EC50: 3.6 ± 3 µM
BK Virus
  EC50: 115 µM
EBV
  EC50: > 170 µM
PK comparison, mouse
  Cmax: BQL-
HCMV (AD169)
  levels of viral transcripts: Significant reductions in levels of most viral transcripts
HHV-6
  EC50: 0.2 µM
HPV 18
  EC50: 516 µM
JC
  EC50: 0.38 µM
HSV-1 [4]
  EC50: 15 µM
CMV
  plasma concentrations of cidofovir: below 250 ng/mL
HPV 11
  EC50: 716 µM
SVG cells; CDV 0.01 to 0.1 μM
  cytotoxicity (total cell number): did not cause cytotoxicity at any concentration tested
SVG cells; CDV 0.1 to 1 μM, 4 days
  cell density and viability: did not elicit any visible changes
